Results reported in PubChem BioAssay (NCI).
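Dose response: 5 concentrations. Exposure: 48 h. Format: 96-well plates. Endpoint: linear interpolation; highest concentration if not reached. Abbreviation: GI50, concentration required for 50% inhibition of growth. The concentration for full growth arrest is given as TGI.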

Columns and labels:
Assay in all cases: inhibition of tumour cell growth, NCI panel, 48 h
MDA-MB-468 breast = test system: MDA-MB-468 breast
SK-MEL-5 melanoma = test system: SK-MEL-5 melanoma
SF-539 CNS = test system: SF-539 CNS
HOP-92 NSCLC = test system: HOP-92 NSCLC
HL-60(TB) leukemia = test system: HL-60(TB) leukemia
COLO 205 colon = test system: COLO 205 colon
OVCAR-5 ovarian = test system: OVCAR-5 ovarian
NCI-H23 lung = test system: NCI-H23 lung
HS 578T breast = test system: HS 578T breast
M14 melanoma = test system: M14 melanoma
786-0 renal = test system: 786-0 renal
MDA-MB-231 breast = test system: MDA-MB-231 breast
TK-10 renal = test system: TK-10 renal
HT29 colon = test system: HT29 colon
U251 CNS = test system: U251 CNS
PC-3 prostate = test system: PC-3 prostate
BT-549 breast = test system: BT-549 breast
RPMI-8226 leukemia = test system: RPMI-8226 leukemia
SR leukemia = test system: SR leukemia
CCRF-CEM leukemia = test system: CCRF-CEM leukemia
NCI-H460 lung = test system: NCI-H460 lung
MOLT-4 leukemia = test system: MOLT-4 leukemia
EKVX NSCLC = test system: EKVX NSCLC
HCT-116 colon = test system: HCT-116 colon
RXF 393 renal = test system: RXF 393 renal
LOX IMVI melanoma = test system: LOX IMVI melanoma
SK-MEL-2 melanoma = test system: SK-MEL-2 melanoma
KM12 colon = test system: KM12 colon
SF-295 CNS = test system: SF-295 CNS
A498 renal = test system: A498 renal
OVCAR-8 ovarian = test system: OVCAR-8 ovarian
HCT-15 colon = test system: HCT-15 colon
NCI-H522 lung = test system: NCI-H522 lung
K-562 leukemia = test system: K-562 leukemia
CAKI-1 renal = test system: CAKI-1 renal
NCI-H226 lung = test system: NCI-H226 lung
SNB-75 CNS = test system: SNB-75 CNS
OVCAR-3 ovarian = test system: OVCAR-3 ovarian
SF-268 CNS = test system: SF-268 CNS
IGROV1 ovarian = test system: IGROV1 ovarian
SK-MEL-28 melanoma = test system: SK-MEL-28 melanoma
DU-145 prostate = test system: DU-145 prostate
HOP-62 NSCLC = test system: HOP-62 NSCLC
A549 NSCLC = test system: A549 NSCLC
ACHN renal = test system: ACHN renal
OVCAR-4 ovarian = test system: OVCAR-4 ovarian
UO-31 renal = test system: UO-31 renal
MALME-3M melanoma = test system: MALME-3M melanoma
SN12C renal = test system: SN12C renal
MDA-MB-435 = test system: MDA-MB-435
MCF7 breast = test system: MCF7 breast
T-47D breast = test system: T-47D breast
SNB-19 CNS = test system: SNB-19 CNS
HCC-2998 colon = test system: HCC-2998 colon

## COC1=CC(c2ccc[nH]2)=N/C1=C\c1[nH]c(C)c(C)c1CCC(=O)OCc1ccccc1
MDA-MB-468 breast
  GI50: 1.51 µM
  TGI: 5.31 µM

## CNC(=O)c1cc(Oc2cccc3nc(NC(=O)Nc4ccc(F)cc4F)ccc23)ccn1
MDA-MB-468 breast
  GI50: 1.83 µM
  TGI: > 50 µM

## Cc1cc2nc3c4cc([N+](=O)[O-])ccc4n(CCN(C)C)c3nc2cc1C
MDA-MB-468 breast
  GI50: 0.374 µM
  TGI: 1.38 µM

## C=C(C)[C@@H]1CC[C@]2(C(=O)N3CCN(C)CC3)CC[C@]3(C)[C@H](CC[C@@H]4[C@@]5(C)CC[C@H](O)C(C)(C)[C@@H]5CC[C@]43C)[C@@H]12
MDA-MB-468 breast
  GI50: 1.82 µM
  TGI: 3.63 µM

## Nc1nc(Cl)nc2c1ncn2C1OC(CO)C(O)C1O (centres undefined)
MDA-MB-468 breast
  GI50: > 100 µM
  TGI: > 100 µM

## Cc1ccc(S(=O)(=O)NCCCNc2nc(Nc3ccc(N4CCN(C)CC4)cc3)nc3ccsc23)cc1
MDA-MB-468 breast
  GI50: 7.43 µM
  TGI: 20.6 µM

## Cc1ccnc(NC(c2ccccc2)c2ccc3cccnc3c2O)c1 (centres undefined)
MDA-MB-468 breast
  GI50: 3.25 µM
  TGI: 14.3 µM

## O=C(Nc1ccc(Cl)cc1)c1cc2ccccc2cc1OP(=O)(O)O
MDA-MB-468 breast
  GI50: 4.28 µM
  TGI: 29.3 µM

## COc1ccc2c(c1)C(=O)c1c-2c(OCCN2CCCCC2)nc2ccc(OC)cc12
MDA-MB-468 breast
  GI50: 0.392 µM
  TGI: 2.49 µM

## CCOC(=O)Nc1cc(-c2ccc(C)c(NS(C)(=O)=O)c2)nn2c(C)nnc12
MDA-MB-468 breast
  GI50: 0.557 µM
  TGI: 4.21 µM

## CS(=O)(=O)c1ccc(-c2cnc(NCc3ccco3)n3cnnc23)cc1
MDA-MB-468 breast
  GI50: 27 µM
  TGI: > 100 µM

## Oc1[nH]c2ccccc2c1/C=c1/ccc2c(c1)N=C(c1cc(F)cc(F)c1)N=2
MDA-MB-468 breast
  GI50: 2.62 µM
  TGI: 8.64 µM

## COC1/C=C/OC2(C)Oc3c(C)c(O)c4c(O)c(c(C=NOC(c5ccccc5)c5ccccc5)c(O)c4c3C2=O)NC(=O)/C(C)=C/C=C/C(C)C(O)C(C)C(O)C(C)C(OC(C)=O)C1C (centres undefined)
MDA-MB-468 breast
  GI50: 1.05 µM
  TGI: 2.78 µM

## COC[C@@H](CC(C)C)N=C1NC(=O)/C(=C/c2ccc3ncoc3c2)N1
SK-MEL-5 melanoma
  GI50: 2.44 µM
  TGI: 12 µM
SF-539 CNS
  GI50: 0.618 µM
  TGI: 7.11 µM
HOP-92 NSCLC
  GI50: 2.58 µM
  TGI: 9.48 µM
HL-60(TB) leukemia
  GI50: 3.48 µM
  TGI: 23.4 µM
COLO 205 colon
  GI50: 2.23 µM
  TGI: 8.06 µM
OVCAR-5 ovarian
  GI50: 3.52 µM
  TGI: > 100 µM
NCI-H23 lung
  GI50: 2.21 µM
  TGI: 8.75 µM
HS 578T breast
  GI50: 2.31 µM
  TGI: 9.22 µM
M14 melanoma
  GI50: 5.64 µM
  TGI: > 100 µM
786-0 renal
  GI50: 5.31 µM
  TGI: > 100 µM
MDA-MB-231 breast
  GI50: 5.64 µM
  TGI: > 100 µM
TK-10 renal
  GI50: 3.24 µM
  TGI: > 100 µM
HT29 colon
  GI50: 4.3 µM
  TGI: 24.1 µM
U251 CNS
  GI50: 2.72 µM
  TGI: > 100 µM
PC-3 prostate
  GI50: 5.72 µM
  TGI: > 100 µM
BT-549 breast
  GI50: 2.44 µM
  TGI: 11.4 µM
RPMI-8226 leukemia
  GI50: 3.19 µM
  TGI: > 100 µM
SR leukemia
  GI50: 2.87 µM
  TGI: > 100 µM
CCRF-CEM leukemia
  GI50: 2.6 µM
  TGI: 9.93 µM
NCI-H460 lung
  GI50: 2.67 µM
  TGI: > 100 µM
MOLT-4 leukemia
  GI50: 4.27 µM
  TGI: > 100 µM
EKVX NSCLC
  GI50: 3.55 µM
  TGI: > 100 µM
MDA-MB-468 breast
  GI50: 1.35 µM
  TGI: 6.99 µM
HCT-116 colon
  GI50: 2.13 µM
  TGI: > 100 µM
RXF 393 renal
  GI50: 2.72 µM
  TGI: 9.18 µM
LOX IMVI melanoma
  GI50: 2.87 µM
  TGI: > 100 µM
SK-MEL-2 melanoma
  GI50: 1.93 µM
  TGI: 4.36 µM
KM12 colon
  GI50: 3.39 µM
  TGI: > 100 µM
SF-295 CNS
  GI50: 3.65 µM
  TGI: > 100 µM
A498 renal
  GI50: 1.34 µM
  TGI: 6.88 µM
OVCAR-8 ovarian
  GI50: 2.88 µM
  TGI: > 100 µM
HCT-15 colon
  GI50: 2.43 µM
  TGI: > 100 µM
NCI-H522 lung
  GI50: 2.13 µM
  TGI: 8.52 µM
K-562 leukemia
  GI50: 2.92 µM
  TGI: > 100 µM
CAKI-1 renal
  GI50: 2.59 µM
  TGI: > 100 µM
NCI-H226 lung
  GI50: 2.18 µM
  TGI: > 100 µM
SNB-75 CNS
  GI50: 0.0317 µM
  TGI: 4.01 µM
OVCAR-3 ovarian
  GI50: 1.08 µM
  TGI: 4.69 µM
SF-268 CNS
  GI50: 3.65 µM
  TGI: 57.3 µM
IGROV1 ovarian
  GI50: 2.73 µM
  TGI: > 100 µM
SK-MEL-28 melanoma
  GI50: 2.66 µM
  TGI: 8.79 µM
DU-145 prostate
  GI50: 3.74 µM
  TGI: > 100 µM
HOP-62 NSCLC
  GI50: 2.89 µM
  TGI: > 100 µM
A549 NSCLC
  GI50: 2.65 µM
  TGI: > 100 µM
ACHN renal
  GI50: 2.89 µM
  TGI: > 100 µM
OVCAR-4 ovarian
  GI50: 10.2 µM
  TGI: > 100 µM
UO-31 renal
  GI50: 2.67 µM
  TGI: 35.3 µM
MALME-3M melanoma
  GI50: 3.06 µM
  TGI: 50.5 µM
SN12C renal
  GI50: 3.12 µM
  TGI: > 100 µM
MDA-MB-435
  GI50: 4.33 µM
  TGI: > 100 µM
MCF7 breast
  GI50: 2.69 µM
  TGI: > 100 µM
T-47D breast
  GI50: 2.2 µM
  TGI: 9.96 µM
SNB-19 CNS
  GI50: 1.99 µM
  TGI: > 100 µM
HCC-2998 colon
  GI50: 7.43 µM
  TGI: > 100 µM

## CNC(=O)c1cc(Oc2ccc3nc(NC(=O)Nc4cc(C(F)(F)F)cc(C(F)(F)F)c4)sc3c2)ccn1
MDA-MB-468 breast
  GI50: 0.399 µM
  TGI: 1.75 µM

## COC(=O)C[Se]C(=O)Cc1c(C)n(C(=O)c2ccc(Cl)cc2)c2ccc(OC)cc12
MDA-MB-468 breast
  GI50: 1.47 µM
  TGI: 4 µM

## CC/C(=C(/CC)c1ccc(O)cc1)c1ccc(O)cc1
MDA-MB-468 breast
  GI50: 2.71 µM
  TGI: 15.1 µM

## O=C1c2ccccc2-c2ccccc2C1(Cl)Cl
MDA-MB-468 breast
  GI50: 1.74 µM
  TGI: 3.3 µM

## COc1cccc(/C=C2\CCc3ccccc3C2=O)c1
MDA-MB-468 breast
  GI50: 12.6 µM
  TGI: 29.3 µM

## CCN(CC)CC(O)c1cc(-c2ccc(Cl)cc2)nc2cc(Cl)ccc12 (centres undefined)
MDA-MB-468 breast
  GI50: 1.92 µM
  TGI: 3.53 µM

## O=C(Nc1nc(-c2ccccc2Cl)cs1)c1cc(-c2ccc(Cl)cc2)nc2ccc(Cl)cc12
MDA-MB-468 breast
  GI50: 5.6 µM
  TGI: 79.6 µM

## COc1ccc(Nc2ncccc2C(=O)NCc2cn(Cc3cccc(Oc4ccccc4)c3)nn2)c(OC)c1
MDA-MB-468 breast
  GI50: 0.77 µM

## COc1cc(OC)c(/C=C/C(=O)c2c(O)cc(OC)c(C3CCN(C)CC3)c2OC)c(OC)c1
MDA-MB-468 breast
  GI50: 1.54 µM
  TGI: 3.03 µM

## N/C(=N\C(N)=N\c1nc2ccccc2s1)c1ccnc(Br)c1
MDA-MB-468 breast
  GI50: 17.5 µM
  TGI: > 100 µM

## CCN(CC)CCNC(=O)C(Cl)=C1C(Cl)=C(Cl)C(Cl)=C1Cl
MDA-MB-468 breast
  GI50: 2.08 µM
  TGI: 7.63 µM

## O=[N+]([O-])c1cccc([I+]c2ccccc2)c1
MDA-MB-468 breast
  GI50: 2.1 µM
  TGI: 17.4 µM

## Cn1cc(-c2ccc3nnc(C(F)(F)c4ccc5ncccc5c4)n3n2)cn1
MDA-MB-468 breast
  GI50: 22.5 µM
  TGI: > 100 µM

## O=C(NC(Cc1ccccc1)C(=O)CCl)OCc1ccccc1 (centres undefined)
MDA-MB-468 breast
  GI50: 3.69 µM
  TGI: 15.4 µM

## O=C1Nc2c(ccc(Cl)c2Cl)/C1=C\c1cc(C(F)(F)F)cc(C(F)(F)F)c1
MDA-MB-468 breast
  GI50: 1.51 µM
  TGI: 5.6 µM

## COc1ccc(/C=C/C(=O)c2ccccc2)cc1OC
MDA-MB-468 breast
  GI50: 5.25 µM
  TGI: 18.6 µM

## Cc1nc2cc(Nc3nc(Nc4ccc(F)cc4)nc(N4CCCC4)n3)ccc2n1Cc1ccccc1
MDA-MB-468 breast
  GI50: 1.61 µM
  TGI: 3.48 µM

## Clc1ccc(Nc2ncnc3c2sc2ncccc23)c(Cl)c1
MDA-MB-468 breast
  GI50: 0.0548 µM
  TGI: 73.8 µM
